Laboratory results published in the supplement of paper PMC12463676, “Small-molecule dissolution of stress granules by redox modulation benefits ALS models” (Nature Chemical Biology, 2025).

Assays:
[1] = compound: O=[As]([O-])(O)O.[K+] [potassium arsenate]; experiment: thermal stability z-score vs DMSO; higher = more thermally stabilized by treatment; details: HeLa; arsenate concentration 1 mM
Protocol: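 Cellular thermal proteome profiling in HeLa cells treated with 1 mM arsenate for 1 h (DMSO pretreatment), heated to ten temperatures (37-66.3 °C). Soluble protein was quantified by TMT mass spectrometry relative to DMSO controls; the thermal stability score was transformed to a z-score; mean of n = 3 experiments.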

[2] = compound: NC(=O)CCCCC1CCSS1 [lipoamide]; experiment: as above; details: HeLa, lipoamide concentration 100 µM
Protocol: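 Cellular thermal proteome profiling in HeLa cells. Cells were treated with 100 µM lipoamide for 1 h, with or without 1 mM arsenate for a further 1 h, then heated to ten temperatures (37-66.3 °C), and soluble protein was quantified by TMT mass spectrometry relative to 0.1% DMSO controls. The thermal stability score (sum of log2 fold changes minus the abundance score) was transformed to a z-score; mean of n = 3 experiments.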

[3] = arsenate co-treatment: 1 mM arsenate 1 h
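Also: each temperature applied for 3 min, abundance score taken as mean log2 fold change at the two lowest temperatures, z-score obtained by mean subtraction and division by SD.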

Sequence of UniProt Q96P11 (Q96P11 whole entry): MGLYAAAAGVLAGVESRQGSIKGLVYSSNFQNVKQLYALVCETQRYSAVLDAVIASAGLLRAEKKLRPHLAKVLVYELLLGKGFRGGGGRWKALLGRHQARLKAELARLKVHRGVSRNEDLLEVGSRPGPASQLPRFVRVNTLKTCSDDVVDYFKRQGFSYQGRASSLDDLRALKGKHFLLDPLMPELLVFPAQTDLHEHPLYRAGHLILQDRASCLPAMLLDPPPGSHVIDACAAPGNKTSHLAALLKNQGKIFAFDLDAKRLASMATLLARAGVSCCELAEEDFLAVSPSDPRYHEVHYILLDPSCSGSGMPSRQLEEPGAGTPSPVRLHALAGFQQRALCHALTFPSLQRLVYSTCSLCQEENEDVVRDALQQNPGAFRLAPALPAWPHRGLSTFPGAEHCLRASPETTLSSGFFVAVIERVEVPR
Sequence of UniProt Q92820 (Q92820 whole entry): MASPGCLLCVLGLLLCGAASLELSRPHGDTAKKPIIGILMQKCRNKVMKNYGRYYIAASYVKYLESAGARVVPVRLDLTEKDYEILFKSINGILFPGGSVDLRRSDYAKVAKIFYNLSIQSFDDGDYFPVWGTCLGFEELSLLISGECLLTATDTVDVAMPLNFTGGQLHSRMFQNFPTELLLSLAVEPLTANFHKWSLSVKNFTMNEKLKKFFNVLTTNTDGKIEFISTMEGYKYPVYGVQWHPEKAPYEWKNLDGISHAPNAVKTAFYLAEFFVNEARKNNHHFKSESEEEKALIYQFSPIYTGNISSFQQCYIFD
Sequence of UniProt P14649 (P14649 whole entry): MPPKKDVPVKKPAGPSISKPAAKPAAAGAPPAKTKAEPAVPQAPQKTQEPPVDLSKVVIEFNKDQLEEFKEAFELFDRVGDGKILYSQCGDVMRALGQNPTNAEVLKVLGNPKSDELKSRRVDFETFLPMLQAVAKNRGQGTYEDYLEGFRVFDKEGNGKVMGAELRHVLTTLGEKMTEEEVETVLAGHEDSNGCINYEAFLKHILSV
Sequence of UniProt P49756 (P49756 whole entry): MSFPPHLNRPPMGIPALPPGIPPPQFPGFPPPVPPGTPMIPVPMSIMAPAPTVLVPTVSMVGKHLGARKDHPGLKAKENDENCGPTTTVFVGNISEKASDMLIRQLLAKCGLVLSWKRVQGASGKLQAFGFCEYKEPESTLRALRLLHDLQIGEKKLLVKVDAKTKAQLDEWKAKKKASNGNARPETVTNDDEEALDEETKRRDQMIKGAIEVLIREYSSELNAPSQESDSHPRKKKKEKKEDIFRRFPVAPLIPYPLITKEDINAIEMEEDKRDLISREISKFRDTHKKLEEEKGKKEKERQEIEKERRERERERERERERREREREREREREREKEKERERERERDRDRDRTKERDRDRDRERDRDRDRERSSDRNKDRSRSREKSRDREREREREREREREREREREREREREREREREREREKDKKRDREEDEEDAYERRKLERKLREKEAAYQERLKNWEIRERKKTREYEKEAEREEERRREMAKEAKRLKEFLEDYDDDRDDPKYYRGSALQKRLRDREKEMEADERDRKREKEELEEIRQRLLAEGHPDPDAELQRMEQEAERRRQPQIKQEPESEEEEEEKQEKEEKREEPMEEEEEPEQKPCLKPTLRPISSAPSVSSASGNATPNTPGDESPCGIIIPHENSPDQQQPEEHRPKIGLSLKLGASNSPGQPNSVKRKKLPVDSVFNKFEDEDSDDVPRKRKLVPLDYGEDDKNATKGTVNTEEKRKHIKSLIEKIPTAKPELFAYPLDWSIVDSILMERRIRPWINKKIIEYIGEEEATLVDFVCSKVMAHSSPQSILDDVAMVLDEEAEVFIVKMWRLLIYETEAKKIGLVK
Sequence of UniProt Q96NL8 (Q96NL8 whole entry): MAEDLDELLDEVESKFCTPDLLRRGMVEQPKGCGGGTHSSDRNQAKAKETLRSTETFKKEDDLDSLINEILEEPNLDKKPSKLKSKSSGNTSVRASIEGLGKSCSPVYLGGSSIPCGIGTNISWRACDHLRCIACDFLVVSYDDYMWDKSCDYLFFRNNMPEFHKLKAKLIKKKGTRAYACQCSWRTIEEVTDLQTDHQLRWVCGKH
Sequence of UniProt P35270 (P35270 whole entry, looked up): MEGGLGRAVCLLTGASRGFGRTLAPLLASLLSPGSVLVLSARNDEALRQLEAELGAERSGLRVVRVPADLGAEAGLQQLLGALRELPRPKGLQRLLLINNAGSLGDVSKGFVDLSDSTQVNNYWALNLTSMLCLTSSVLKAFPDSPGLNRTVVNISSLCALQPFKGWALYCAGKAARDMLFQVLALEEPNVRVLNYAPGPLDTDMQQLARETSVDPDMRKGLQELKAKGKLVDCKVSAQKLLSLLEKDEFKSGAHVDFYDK
Sequence of UniProt Q15118 (Q15118 whole entry, looked up): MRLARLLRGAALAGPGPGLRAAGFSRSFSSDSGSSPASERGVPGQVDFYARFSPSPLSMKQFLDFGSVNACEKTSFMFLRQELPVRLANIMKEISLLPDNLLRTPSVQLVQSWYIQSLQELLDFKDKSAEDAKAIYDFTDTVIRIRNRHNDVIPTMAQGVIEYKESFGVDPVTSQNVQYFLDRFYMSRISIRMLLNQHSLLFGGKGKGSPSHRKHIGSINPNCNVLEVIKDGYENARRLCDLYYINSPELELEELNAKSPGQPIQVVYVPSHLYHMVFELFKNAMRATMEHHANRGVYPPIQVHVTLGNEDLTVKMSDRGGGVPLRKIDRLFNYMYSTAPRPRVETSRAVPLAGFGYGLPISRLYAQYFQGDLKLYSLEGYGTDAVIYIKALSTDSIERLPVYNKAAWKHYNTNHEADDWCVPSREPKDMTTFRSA
Sequence of UniProt Q9BTY7 (Q9BTY7 whole entry): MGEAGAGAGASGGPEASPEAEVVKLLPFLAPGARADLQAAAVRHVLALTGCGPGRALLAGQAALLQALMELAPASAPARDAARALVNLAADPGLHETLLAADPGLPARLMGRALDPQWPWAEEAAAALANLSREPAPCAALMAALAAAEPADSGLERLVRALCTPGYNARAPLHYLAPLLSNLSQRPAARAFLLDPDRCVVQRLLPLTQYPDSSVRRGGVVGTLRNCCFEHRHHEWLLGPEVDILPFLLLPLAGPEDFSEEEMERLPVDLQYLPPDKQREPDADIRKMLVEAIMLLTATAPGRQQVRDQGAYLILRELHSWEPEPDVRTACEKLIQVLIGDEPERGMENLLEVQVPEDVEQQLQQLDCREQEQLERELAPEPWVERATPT
Sequence of UniProt P40616 (P40616 whole entry): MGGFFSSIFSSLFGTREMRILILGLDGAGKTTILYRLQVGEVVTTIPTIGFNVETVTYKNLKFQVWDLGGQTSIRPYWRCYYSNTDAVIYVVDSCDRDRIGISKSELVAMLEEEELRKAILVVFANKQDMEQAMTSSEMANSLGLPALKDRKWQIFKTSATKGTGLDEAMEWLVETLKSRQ
Sequence of UniProt Q9Y265 (Q9Y265 whole entry): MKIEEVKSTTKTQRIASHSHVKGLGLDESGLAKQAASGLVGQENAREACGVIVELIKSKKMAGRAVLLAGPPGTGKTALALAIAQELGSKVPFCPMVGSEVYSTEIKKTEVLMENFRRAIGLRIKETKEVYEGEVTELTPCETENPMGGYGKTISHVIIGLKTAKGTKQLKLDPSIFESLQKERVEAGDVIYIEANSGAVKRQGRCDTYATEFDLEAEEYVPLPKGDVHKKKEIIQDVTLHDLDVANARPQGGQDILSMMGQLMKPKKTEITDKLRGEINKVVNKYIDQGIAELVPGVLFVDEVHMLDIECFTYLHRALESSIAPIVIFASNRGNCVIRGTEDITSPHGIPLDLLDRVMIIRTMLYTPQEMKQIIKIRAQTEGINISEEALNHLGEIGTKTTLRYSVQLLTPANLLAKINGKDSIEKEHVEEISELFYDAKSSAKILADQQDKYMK
Sequence of UniProt Q04727 (Q04727 whole entry): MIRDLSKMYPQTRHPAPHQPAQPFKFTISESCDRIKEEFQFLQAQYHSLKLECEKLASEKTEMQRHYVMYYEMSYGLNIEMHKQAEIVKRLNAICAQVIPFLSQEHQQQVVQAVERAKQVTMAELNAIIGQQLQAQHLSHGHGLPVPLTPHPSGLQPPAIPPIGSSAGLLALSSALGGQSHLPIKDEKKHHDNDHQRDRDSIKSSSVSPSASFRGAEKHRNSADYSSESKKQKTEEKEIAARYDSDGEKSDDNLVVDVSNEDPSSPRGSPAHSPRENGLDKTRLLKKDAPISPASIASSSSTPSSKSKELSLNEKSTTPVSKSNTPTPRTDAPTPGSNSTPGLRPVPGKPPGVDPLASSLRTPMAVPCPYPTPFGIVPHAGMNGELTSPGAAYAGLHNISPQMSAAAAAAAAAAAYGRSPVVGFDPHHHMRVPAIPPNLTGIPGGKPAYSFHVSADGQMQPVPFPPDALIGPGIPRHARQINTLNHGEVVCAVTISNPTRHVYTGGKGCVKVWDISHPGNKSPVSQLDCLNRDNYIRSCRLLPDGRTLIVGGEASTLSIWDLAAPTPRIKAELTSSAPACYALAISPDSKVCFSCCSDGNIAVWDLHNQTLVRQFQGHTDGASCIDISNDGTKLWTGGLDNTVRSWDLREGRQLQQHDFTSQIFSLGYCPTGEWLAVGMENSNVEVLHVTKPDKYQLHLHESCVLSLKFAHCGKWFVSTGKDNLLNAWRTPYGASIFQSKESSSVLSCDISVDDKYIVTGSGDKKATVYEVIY
Sequence of UniProt Q9UL26 (Q9UL26 whole entry): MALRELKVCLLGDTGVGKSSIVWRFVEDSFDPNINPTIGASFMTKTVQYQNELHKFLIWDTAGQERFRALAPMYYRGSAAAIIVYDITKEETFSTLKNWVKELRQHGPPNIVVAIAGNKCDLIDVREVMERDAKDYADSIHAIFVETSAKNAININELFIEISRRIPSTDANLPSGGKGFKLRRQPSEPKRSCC
Sequence of UniProt Q9NUG6 (Q9NUG6 whole entry): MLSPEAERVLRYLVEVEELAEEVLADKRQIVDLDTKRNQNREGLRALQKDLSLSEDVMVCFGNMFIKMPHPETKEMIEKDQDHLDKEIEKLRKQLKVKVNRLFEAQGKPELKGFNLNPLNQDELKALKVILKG

Target | thermal stability z-score [1] | thermal stability z-score [2, 3] | thermal stability z-score ([2]; arsenate co-treatment: none)
C8ORF37 (UniProt Q96NL8) | 0.161 | 0.385 | 0.235
ABCB6 (UniProt Q9NP58) | -0.252 | -0.585 | -0.323
C11ORF68 (UniProt Q9H3H3) | 0.538 | -0.438 | -0.551
MED16 (UniProt Q9Y2X0) | -0.0825 | -0.0673 | 0.0989
SPR (UniProt P35270) | 1.36 | 1.28 | 0.634
HGH1 (UniProt Q9BTY7) | 0.787 | 0.403 | 0.226
DDX42 (UniProt Q86XP3) | 0.47 | 0.815 | 0.837
C11ORF98 (UniProt E9PRG8) | -1.91 | -0.688 | -0.534
NDUFA2 (UniProt O43678) | 0.396 | -0.29 | -0.00199
TSR2 (UniProt Q969E8) | 0.317 | 0.33 | 0.0774
MYH10 (UniProt P35580) | 0.375 | 0.273 | 0.19
GGH (UniProt Q92820) | 0.317 | 0.661 | 0.64
TMEM87B (UniProt Q96K49) | -0.0195 | -0.402 | 0.56
NASP (UniProt P49321) | 0.578 | -0.412 | 0.0851
RAB22A (UniProt Q9UL26) | -0.396 | 0.482 | 0.207
GPN3 (UniProt Q9UHW5) | -0.524 | -0.0577 | -0.282
SMC4 (UniProt Q9NTJ3) | 0.763 | 0.387 | 1.46
CBR3 (UniProt O75828) | 0.282 | 0.347 | -0.0437
AP2M1 (UniProt Q96CW1) | 0.0231 | 0.48 | 0.0269
PDRG1 (UniProt Q9NUG6) | 0.203 | 0.0914 | -0.238
NUTF2 (UniProt P61970) | -0.609 | 0.312 | 0.256
VPRBP (UniProt Q9Y4B6) | 0.0129 | -0.368 | -0.578
UPF2 (UniProt Q9HAU5) | 0.0278 | -0.16 | 0.104
NDUFB10 (UniProt O96000) | 0.18 | -0.509 | -0.759
ZC3HAV1 (UniProt Q7Z2W4) | 0.156 | -0.627 | 0.183
RBM25 (UniProt P49756) | -0.454 | -0.0516 | 0.34
MYL6B (UniProt P14649) | -1.03 | -0.283 | 0.233
ABCC4 (UniProt O15439) | -0.0795 | 0.622 | 0.731

Target | thermal stability z-score [1] | thermal stability z-score [2, 3] | thermal stability z-score ([2]; arsenate co-treatment: none)
FHOD1 (UniProt Q9Y613) | 0.2 | -0.261 | -0.0798
HSP90AB1 (UniProt P08238) | 0.108 | -0.421 | -0.166
GUSB (UniProt P08236) | 0.885 | -0.178 | -0.261
ST7 (UniProt Q9NRC1) | -1.16 | -0.0918 | 0.0296
RUVBL1 (UniProt Q9Y265) | -0.662 | -0.0828 | 0.115
CELSR2 (UniProt Q9HCU4) | -0.894 | -1.53 | -2.3
ABCB7 (UniProt O75027) | 0.456 | 0.117 | 0.0859
PRIM1 (UniProt P49642) | -0.439 | -0.361 | -0.125
NSUN5 (UniProt Q96P11) | 0.136 | 0.469 | -0.155
POLD2 (UniProt P49005) | -0.0023 | 0.196 | 0.117
PUS1 (UniProt Q9Y606) | 0.257 | -0.761 | -0.18
TLE4 (UniProt Q04727) | 0.289 | -0.201 | 0.36
MRPL2 (UniProt Q5T653) | 0.601 | 0.745 | 0.173
TRIM56 (UniProt Q9BRZ2) | -3.98 | -0.0694 | -0.839
TRAPPC13 (UniProt A5PLN9) | -0.371 | 0.252 | -0.0347
ABHD16A (UniProt O95870) | 1.11 | -0.193 | -0.0821
PDK1 (UniProt Q15118) | 0.836 | 0.35 | -0.0874
MCOLN1 (UniProt Q9GZU1) | -1.27 | -0.724 | -0.559
PHF10 (UniProt Q8WUB8) | -0.359 | -0.191 | -0.061
RACGAP1 (UniProt Q9H0H5) | -0.148 | -0.198 | -0.0575
PAWR (UniProt Q96IZ0) | 0.349 | 0.873 | 0.657
WBSCR16 (UniProt Q96I51) | 0.683 | 1.56 | 0.878
SSR1 (UniProt P43307) | -1.26 | -1.49 | -0.782
ARL1 (UniProt P40616) | 0.669 | -0.148 | -0.943
NELFA (UniProt Q9H3P2) | -0.107 | -0.1 | -0.0674
ATM (UniProt Q13315) | 0.00628 | 0.678 | -0.445
BUB1 (UniProt O43683) | 0.029 | -0.0469 | 0.0303
